For this experiment, the target named is T1, Dopamine beta hydroxylase (Homo sapiens, UniProt P09172).
T1 construct: 125 μl of plasma; tissue Instituto Português do Sangue Transplantação; host or cells: human plasma from healthy donors
T1 sequence (P09172 40-617 limits assumed): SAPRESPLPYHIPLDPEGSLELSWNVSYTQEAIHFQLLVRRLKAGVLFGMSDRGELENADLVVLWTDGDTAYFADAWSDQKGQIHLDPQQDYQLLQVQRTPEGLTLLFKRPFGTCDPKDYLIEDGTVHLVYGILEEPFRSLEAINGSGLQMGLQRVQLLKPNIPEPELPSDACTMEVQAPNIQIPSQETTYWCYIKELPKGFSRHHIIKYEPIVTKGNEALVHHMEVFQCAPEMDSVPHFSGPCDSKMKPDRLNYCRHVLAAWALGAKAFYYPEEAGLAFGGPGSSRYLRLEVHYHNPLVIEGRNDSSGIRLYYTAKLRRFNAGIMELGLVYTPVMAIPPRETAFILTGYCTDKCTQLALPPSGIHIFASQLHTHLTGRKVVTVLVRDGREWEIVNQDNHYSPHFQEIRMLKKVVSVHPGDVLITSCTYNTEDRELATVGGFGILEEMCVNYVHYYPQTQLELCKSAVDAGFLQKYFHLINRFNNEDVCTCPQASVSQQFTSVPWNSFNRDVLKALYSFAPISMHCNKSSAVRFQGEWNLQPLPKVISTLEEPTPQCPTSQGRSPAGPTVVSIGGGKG
The experiment in a line: Dopamine beta hydroxylase activity in human plasma. It counts as biochemical. The note with it: for Plasma (0.01 μM), activity in % of control: inhibitor 0.01 μM; for Plasma (0.1 μM), activity in % of control: inhibitor 0.1 μM. In short, it runs like this: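 Healthy-donor human plasma pre-incubated 10 min at 37° C with compound at final 10, 100 or 1000 nM in pH 5.0 acetate buffer with ascorbate, fumarate, pargyline, N-ethylmaleimide, catalase and copper sulfate. Tyramine substrate then added for 45 min; octopamine formed was isolated by SCX cartridge, periodate-converted and read at 330 nm; activity given as % control.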

Molecules are shown by their SMILES.

Turning to `O=C(Cc1[nH]c(=S)n2c1C[C@@H](c1c(F)ccc(Br)c1F)C2)NCc1cccnc1` [Example 124, (S)-2-(6-(3-bromo-2,6-difluorophenyl)-3-thioxo-2,5,6,7-tetrahydro-3H-pyrrolo[1,2-c]imidazol-1-yl)-N-(pyridin-3-ylmethyl)acetamide], the “Plasma (0.01 μM), activity in % of control” value is 42.8 % of control and the “Plasma (0.1 μM), activity in % of control” value is listed as 3.3 % of control.

As for `O=C(Cc1[nH]c(=S)n2c1C[C@H](c1c(F)ccc(Br)c1F)C2)N1CCS(=O)(=O)CC1` [Example 125, (R)-2-(6-(3-bromo-2,6-difluorophenyl)-3-thioxo-2,5,6,7-tetrahydro-3H-pyrrolo[1,2-c]imidazol-1-yl)-1-(1,1-dioxidothiomorpholino)ethan-1-one], the “Plasma (0.01 μM), activity in % of control” value is reported as 106.5 % of control and the “Plasma (0.1 μM), activity in % of control” value is given as 43.7 % of control.

`CS(=O)(=O)C1CCN(C(=O)Cc2[nH]c(=S)n3c2C[C@H](c2c(F)ccc(Br)c2F)C3)CC1` [Example 126, (R)-2-(6-(3-bromo-2,6-difluorophenyl)-3-thioxo-2,5,6,7-tetrahydro-3H-pyrrolo[1,2-c]imidazol-1-yl)-1-(4-(methylsulfonyl)piperidin-1-yl)ethan-1-one]: the “Plasma (0.01 μM), activity in % of control” value is 100.2 % of control and the “Plasma (0.1 μM), activity in % of control” value is 40.2 % of control.

`C[C@@H](NC(=O)Cc1[nH]c(=S)n2c1C[C@H](c1c(F)ccc(Br)c1F)C2)C1CCCCC1` [Example 127, 2-((R)-6-(3-bromo-2,6-difluorophenyl)-3-thioxo-2,5,6,7-tetrahydro-3H-pyrrolo[1,2-c]imidazol-1-yl)-N—((R)-1-cyclohexylethyl)acetamide]: the “Plasma (0.01 μM), activity in % of control” value was 81.3 % of control and the “Plasma (0.1 μM), activity in % of control” value is listed as 83.8 % of control.

In the case of `CN(C(=O)Cc1[nH]c(=S)n2c1C[C@H](c1c(F)ccc(Br)c1F)C2)C1CCOCC1` [Example 128, (R)-2-(6-(3-bromo-2,6-difluorophenyl)-3-thioxo-2,5,6,7-tetrahydro-3H-pyrrolo[1,2-c]imidazol-1-yl)-N-methyl-N-(tetrahydro-2H-pyran-4-yl)acetamide], the “Plasma (0.01 μM), activity in % of control” value is listed as 98.1 % of control and the “Plasma (0.1 μM), activity in % of control” value is 29.7 % of control.

Regarding `O=C(Cc1[nH]c(=S)n2c1C[C@H](c1c(F)c(F)cc(F)c1F)C2)NC1CCS(=O)(=O)CC1` [Example 129, (R)—N-(1,1-dioxidotetrahydro-2H-thiopyran-4-yl)-2-(6-(2,3,5,6-tetrafluorophenyl)-3-thioxo-2,5,6,7-tetrahydro-3H-pyrrolo[1,2-c]imidazol-1-yl)acetamide], the “Plasma (0.01 μM), activity in % of control” value is 50.1 % of control and the “Plasma (0.1 μM), activity in % of control” value is 10.3 % of control.

On to `O=C(Cc1[nH]c(=S)n2c1C[C@H](c1c(F)ccc(Br)c1F)C2)NC1CCS(=O)(=O)CC1` [Example 130, (R)-2-(6-(3-bromo-2,6-difluorophenyl)-3-thioxo-2,5,6,7-tetrahydro-3H-pyrrolo[1,2-c]imidazol-1-yl)-N-(1,1-dioxidotetrahydro-2H-thiopyran-4-yl)acetamide], for which the “Plasma (0.01 μM), activity in % of control” value is 55.7 % of control and the “Plasma (0.1 μM), activity in % of control” value is reported as 8.4 % of control.

In the case of `CN(CCO)C(=O)Cc1[nH]c(=S)n2c1C[C@H](c1c(F)ccc(Br)c1F)C2` [Example 131, (R)-2-(6-(3-bromo-2,6-difluorophenyl)-3-thioxo-2,5,6,7-tetrahydro-3H-pyrrolo[1,2-c]imidazol-1-yl)-N-(2-hydroxyethyl)-N-methylacetamide], the “Plasma (0.01 μM), activity in % of control” value was 89.8 % of control and the “Plasma (0.1 μM), activity in % of control” value is on record as 50.5 % of control.

These data come from patent publication US11434242B2, “Dopamine-b-hydroxylase inhibitors” (BIAL-PORTELA & Cª, S.A., priority 2017, dated 2022).
